We go through 3 compounds from patent US7122549B2, “Saframycins, analogues and uses thereof” (President and Fellows of Harvard College, priority 2000, dated 2006).

Structures are written as SMILES. Where two headings read alike, the source gives them in different places.

The test system of one test is A-549 lung carcinoma. In words: Cell Growth Inhibition Assay (MTS, CellTiter 96 AQueous). The conditions noted are these: Homo sapiens, A549 cells, 72 hr with compound, MTS readout. In kind it is cell-based. As for the experimental part:
(§1) The two cell lines used, A375 malignant melanoma and A-549 lung carcinoma, were purchased from American Type Culture Collection. These cells were cultured at 37° C. in a humidified atmosphere of 5% CO2 in Dulbecco's Modified Eagle Medium (DMEM) supplemented with 10% fetal bovine serum (FBS), 0.1% glutamine and 0.1% penicillin-streptomycin. DMEM, FBS, glutamine and penicillin-streptomycin were purchased from Life Technologies (Grand Island, N.Y.).
(§2) Exponentially growing cells were seeded at ˜3000 (50 μl) cells per well in 96-well flat-bottomed microtiter plates and then incubated at 37° C. in a humidified atmosphere of 5% CO2/95% air for 24 hr. An analogue was dissolved in dimethyl sulfoxide to give a concentration of 0.6 mg/ml, which was further diluted with the culture medium containing 10% fetal bovine serum. Nine three-fold dilutions were prepared with the maximum concentration being 1/300 of the original DMSO solution (i.e. 2000 ng/ml). This procedure was repeated for each analogue. Fifty microliters of the obtained dilutions were each transferred into the well of the above described culture plate. The cell culture was then placed back into the incubator at 37° C. under the 5% CO2 atmosphere for 72 hr. Cell proliferation was quantified by using the CellTiter 96 AQueous Assay (Promega). In this assay a mixture solution (20 μl) of MTS [Owen's reagent: 3-(4,5-dimethylthiazol-2-yl)-5-(3-carbomethoxyphenyl)-2-(4-sulfophenyl)-2H-tetrazolium inner salt] and phenazine methosulfate (PMS) was added to each well. The resulting mixtures were further incubated for 2.5 hr. The absorbance was measured with a microplate reader at a test wavelength of 540 nm and a reference wavelength of 655 nm to serve as an index of the number of viable cells. The inhibitory ratio of the test compound was calculated according to the following formula: inhibition ratio (%)=100×(C−T)/C, where T is an absorbance of the well containing a test compound and C is an absorbance of the well containing no test compound. The IC50 was calculated by the least squares method.

The subject of a further test is A375 malignant melanoma. Described as above. In kind it is cell-based. The conditions noted are these: Homo sapiens, A-375, A375 cells, 72 hr with compound, MTS readout. How it is done: as §1, §2
[1] abbreviates: Table 1, read-out: IC50, nM A549.
[2] abbreviates: Table 1, read-out: IC50, nM A375.

In general, IC50 refers to the concentration that gives 50% inhibition. Take `COc1c(C)c(OC)c2c(c1O)[C@@H]1[C@@H]3Cc4c(OC)c(C)c(OC)c(O)c4[C@H](CNC(=O)OCC4c5ccccc5-c5ccccc54)N3[C@@H](C#N)C(C2)N1C`: the IC50 in the test on A-549 lung carcinoma (Table 2, read-out: IC50 (nM) Cell line A549-Lung) was 176 nM; in the test on A375 malignant melanoma (Table 2, read-out: IC50 (nM) Cell line A375-Melanoma), 35 nM.

With `CC(=O)C(N)=O`, the half-maximal inhibitory concentration (IC50) in the test with A-549 lung carcinoma (setting [1]) was found to be 160 nM; with A375 malignant melanoma (setting [2]) it was 4.5 nM.

For the compound `COc1c(C)c(OC)c2c(c1O)[C@@H]1[C@@H]3Cc4c(OC)c(C)c(OC)c(O)c4[C@H](CNC(=O)c4ccc5ccccc5n4)N3[C@@H](C#N)[C@H](C2)N1C` [drawing 160 R = H (11), Quinoline-2-carboxylic acid amide derivative], the values for the IC50 in the test with A-549 lung carcinoma (setting [1]) and in the test with A375 malignant melanoma (setting [2]) were 4.4 nM and 1.3 nM, respectively.
